According to patent US12257290B2, “PIC1 inhibition of myeloperoxidase oxidative activity in an animal model” (priority 2018, dated 2025):
Ends that are not written are not given here.

Experiments:
[1] = 'Two-hit' TRALI model: LPS then 30% mismatched human RBC transfusion; type: in vivo, Wistar rats
Procedure: In this Example, Wistar rats were primed with lipopolysaccharide followed by 30% transfusion of mismatched erythrocytes, against which the rats have preexisting antibodies. Sham and vehicle animals were used as controls with a subgroup of animals receiving PIC1 two minutes before transfusion. At 4 hours, blood was isolated for complete blood count. Isolated lung tissue was stained with hematoxylin and eosin and myeloperoxidase (MPO) activity in lung tissue was quantified in a functional assay. Free DNA in plasma was detected by PicoGreen staining.
Lung tissue stained with H&E was analyzed by a clinician blinded to the experimental groups (vehicle only and PIC1-treated animals). Neutrophil infiltration and cell wall thickening were scored on a scale of 0-4: 0=normal lungs, 1=minor lung involvement, 2=moderate lung involvement, 3=serious lung involvement, 4=severe lung involvement.
A myeloperoxidase (MPO) activity assay was conducted as follows. Frozen lung tissue was diced and homogenized on ice in 50 mM potassium phosphate, and centrifuged at 10,000 RPM at 4° C. for 15 minutes after which the supernatant was discarded. To solubilize MPO from the neutrophils in lung tissue, the pellet was resuspended in […] 50 mM hexadecyltrimethylammonium bromide (HTAB), homogenized by sonication and snap frozen in liquid nitrogen. This process was repeated twice and samples were then centrifuged at 10,000 RPM at 4° C. for 10 minutes and supernatant collected.
Peroxidase activity in these samples was measured using 10-actyl-3,7-dihydroxyphenoxazine (ADHP, Amplex Red) following MPO antibody capture from samples as previously described. Fluorescence was read from […] in […] which provided twenty-five data points per well at an excitation wavelength of 535 nm and emission wavelength of 590 nm using a BioTek microplate reader. Purified MPO was used as a positive control and phosphate buffered saline (PBS) as a negative control. All activity assays were performed in triplicate.
Free DNA was measured by PicoGreen in rat plasma as previously described. Briefly, plasma samples were diluted 1:10 in 10 mM Tris-HCl, 1 mM EDTA, pH 8.0 (TE) buffer and 50 uL of each sample was added to the wells along with 50 uL of a 1:200 dilution of PicoGreen (Life Technologies) and incubated at room temperature for 10 minutes, protected from light. A DNA standard curve was prepared in TE Buffer. The fluorescence was then read at an excitation wavelength of 485 nm and an emission wavelength of 520 nm using a BioTek microplate reader. All free DNA measurements were done in triplicate.
For the ‘two-hit’ model, rats were sedated as above and lipopolysaccharide (LPS, from Salmonella enterica serotype enteritidis, 2 mg/kg [Millipore-Sigma]) was administered intravascularly through the indwelling jugular catheter as the ‘first-hit’ similar to other TRALI models (reviewed in references). This was followed 30 minutes later by 30% mismatched RBC transfusion as the ‘second-hit’. Blood samples were collected prior to LPS administration and at 4 hours after RBC transfusion for analysis of blood chemistries (SuperChem and CBC, Antech Diagnostics). Upon completion of the final blood draw, the animals were euthanized using isofluorane and guillotine. A necropsy was completed to collect organs for histopathology. Lungs acquired from each animal were weighed and then stored in formalin or frozen at −70° C. Hematoxylin and eosin (H&E) stained sections of formalin fixed tissue were reviewed in a blinded fashion.
To determine if prophylactic administration of PIC1 would attenuate TRALI pathogenesis, this transfusion-based antibody-initiated complement-mediated TRALI model was utilized. Twenty-eight minutes after IV LPS infusion, 160 mg/kg PIC1 or vehicle control was administered IV followed by the 30% mismatched RBC transfusion. […]

[2] = tested on: Human neutrophil MPO; assay: Purified MPO inflammatory peritonitis model (peritoneal wash TMB peroxidase activity, PicoGreen free DNA); type: in vivo, Wistar rats; conditions: for MPO activity in peritoneal wash: P<0.019
Procedure: Human neutrophil MPO (Lee Biosolutions) was diluted in sterile saline to the respective doses necessary for each experiment. PIC1 in the form of PA-dPEG24 (PolyPeptide Group) was solubilized and diluted in 0.5 M Histidine buffer, adjusted to pH 6.5, and then diluted to each of the respective doses used for each experiment.
Wistar rats were sedated and injected IP with purified MPO in experiments that were conducted under an Eastern Virginia Medical School IRB approved protocol (#17-008). 16-week-old male Wistar rats were used in these experiments weighing approximately 200 g. The rats received sedation with ketamine and acepromazine prior to all procedures. They then received a 1 ml IP injection with MPO in saline. After the time interval indicated, a tail vein phlebotomy was performed to obtain 250 mcl of blood in a K2EDTA Microtainer (BD). The animals were then euthanized with FatalPlus IV. A peritoneal wash with 20 ml of ice cold PBS was then performed by […] followed by massage and extraction from a small hole in the peritoneum with a blunt needle and syringe.
Cells were sedimented and supernatants were tested for MPO peroxidation of TMB, with sample processing performed as follows. Peritoneal wash fluid was centrifuged at 1500×g for 5 minutes to sediment cells and other debris. The resulting peritoneal wash fluid supernatant was aliquoted and frozen for further analysis. The cell pellet was resuspended to the original volume with saline and cells were counted on a hemocytometer. Plasma was collected after centrifugation of the lavender top blood collection tubes.
The MPO activity assay was performed as follows. Peritoneal fluid, along with pure MPO for a standard curve, was serially titrated in 0.1 ml in a 96 well plate followed by the addition of 0.1 ml of 3,3′,5,5′-tetramethylbenzidine (TMB) (Fisher). After one minute, 0.1 ml of 2.5 M H2SO4 was added to stop the reaction and the plate was read at 450 nm. Using linear regression from the standard curve, the MPO activity was calculated for each sample.
In the peritoneal wash fluid supernatants, free DNA was measured as a marker of NETosis via the PicoGreen assay. Peritoneal fluid or plasma, along with DNA (Invitrogen) for a standard curve, was serially titrated in 0.1 ml in a 96 well plate and used in the Quant-iT PicoGreen (Fisher) assay. The PicoGreen solution was diluted as directed by the kit instructions and added to samples, which were incubated in the dark for 10 minutes and then read on a fluorescent microplate reader at excitation 480 nm/emission 520 nm). Using linear regression from the standard curve, the DNA concentration was quantitated for each sample.
The effect of PIC1, in particular PA-dPEG24, on the inhibition of MPO and NETosis in MPO-mediated peritonitis was then assayed. A series of increasing doses of PA-dPEG24 (1 mg, 5 mg, and 20 mg) were injected IP immediately, i.e., one minute after purified MPO was inoculated, into the peritoneum followed 2 hours later by phlebotomy, euthanasia and peritoneal wash. A control was used where no PA-dPEG24 was administered. An MPO activity assay and a free DNA assay according to the methods discussed above were conducted for each of 0 mg, 1 mg, 5 mg, and 20 mg PA-dPEG24 doses.

With “IALILEPICCQERAA-dPEG24 (cysteine pairing not given here) [PA-dPEG24, 15-amino acid PEGylated peptide, 24 PEG moieties at the C-terminus]” the lung weight ([1]; 160 mg/kg IV 2 min before transfusion, 4 h after transfusion, vs vehicle p=0.001) was “significant reduction”, the “lung histology (H&E)” value ([1]; 160 mg/kg IV prophylactic, 4 h after transfusion) was “decreased injury to the lung architecture” and the “MPO activity in lung tissue (Amplex Red)” value ([1]; 5 minutes read, vs vehicle p=0.005) was “significantly reduced”. The “MPO activity in lung tissue (Amplex Red)” value ([1]; 10 minutes read, vs vehicle p=0.002) was “significantly reduced”, the “lung injury score (neutrophil infiltration and cell wall thickening), mean” value ([1]; scale 0-4, 160 mg/kg IV, vs vehicle p=0.003) was 1.5 and the “free DNA in plasma (PicoGreen)” value ([1]; vs vehicle p=0.02) was “significantly reduced”. For the same substance, the “blood levels of white blood cells” value ([1]; vs vehicle p=0.043) was “significant increase”, the “blood levels of lymphocytes” value ([1]; vs vehicle p=0.048) was “significant increase” and the circulating neutrophils ([1]; vs vehicle p=0.101) was “trends towards increased numbers”. For the same substance, the circulating monocytes ([1]; vs vehicle p=0.229) was “trends towards increased numbers”, the “blood levels of creatinine, BUN/creatinine and AST” value ([1]; vs vehicle, data not shown) was “reduction” and the kidney weights ([1]; vs vehicle, data not shown) was “reduced kidney weights”. The “MPO activity in peritoneal wash” value ([2]; 1 mg (5 mg/kg) IP, 2 h) was “Statistically significant decreases”, the “MPO activity in peritoneal wash” value ([2]; 5 mg (25 mg/kg) IP, 2 h) was “Statistically significant decreases” and the “free DNA in the peritoneal fluid (PicoGreen)” value ([2]; 20 mg (100 mg/kg) IP, 2 h, P=0.11) was “trend towards decreased free DNA”. The “decrease in peroxidase activity by TMB in peritoneal wash” value ([2]; 20 mg (100 mg/kg) IP, 2 h, vs no PA-dPEG24, P=0.015) was 5 fold and the “free DNA in blood plasma (PicoGreen)” value ([2]; highest dose, P=0.22 vs no PIC1) was “lowest with the highest dose”.
